Structures can show the parent of a compound that is named as a salt. Where two headings read alike, the source gives them in different places.
What was measured:
[1] = system: SD rats; experiment: animal or person; assay type: in vivo
[2] = system: KM mice; experiment: animal or person; assay type: in vivo
[3] = Rattus norvegicus, SD rats (male, 220-300 g), injection via the tail vein, disappearance of righting reflex, read-out: ED50
[4] = SD rats, single tail vein injection at 2×ED50, time from disappearance to recovery of righting reflex
[5] = SD rats, single tail vein injection at 2×ED50, time from recovery of righting reflex to free crawling
[6] = KM mice, single tail vein injection at 2×ED50, time from disappearance to recovery of righting reflex
[7] = KM mice, single tail vein injection at 2×ED50, time from recovery of righting reflex to free crawling
[8] = Mus musculus, KM mice (male, 18-22 g), injection via the tail vein, disappearance of righting reflex, read-out: ED50

| Molecule | ED50 [1, 3] [mg/kg] | 2ED50 duration [1, 4] [min] | 2ED50 recovery time [1, 5] [min] | Quality of recovery ([1]; SD rats, tail vein injection) | 2ED50 duration [2, 6] [min] | 2ED50 recovery time [2, 7] [min] | Quality of recovery ([2]; KM mice, tail vein injection) | ED50 [2, 8] [mg/kg] | ED50 ([1]; Rattus norvegicus) [mg/kg] | 2ED50 duration ([1]; rat, in vivo) [min] | 2ED50 recovery time ([1]; rat, in vivo) [min] | Quality of recovery ([1]; rat, in vivo) | ED50 ([2]; Mus musculus) [mg/kg] | 2ED50 duration ([2]; mouse, in vivo) [min] | 2ED50 recovery time ([2]; mouse, in vivo) [min] | Quality of recovery ([2]; mouse, in vivo) | ED50 ([1]; SD rats (male, 220-300 g), injection via the tail vein, disappearance of righting reflex) [mg/kg] | ED50 ([2]; KM mice (male, 18-22 g), injection via the tail vein, disappearance of righting reflex) [mg/kg] | ED50 ([1]; rat, in vivo) [mg/kg] | ED50 ([2]; mouse, in vivo) [mg/kg] |
| --- | --- | --- | --- | --- | --- | --- | --- | --- | --- | --- | --- | --- | --- | --- | --- | --- | --- | --- | --- | --- |
| CCCOC(=O)OCOC(=O)CC[C@@H]1N=C(c2ccccn2)c2c(ccc(Br)c2F)-n2c(C)cnc21 [Example 72, ((Propoxycarbonyl)oxy)methyl 3-((4S)-8-bromo-7-fluoro-1-methyl-6-(pyridine-2-yl)-4H-benzo[f]imidazo [1,2-a][1,4]diaza-4-ylpropionate sulfonate] | 4.9 | 4.01 | 2.43 | ++ (“++” means 1-3 min) | 3.12 | 2.48 | +++ (“+++” means 3-5 min) | 32.5 | – | – | – | – | – | – | – | – | – | – | – | – |
| COC(=O)C(OC(=O)CC[C@@H]1N=C(c2ccccn2)c2cc(Br)c(OC(F)(F)F)c(C)c2-n2c(C)cnc21)C1CCSC1 (stereo partly drawn) [Example 74, 2-methoxy-2-oxo-1-(tetrahydrothiophene-3-yl)ethyl 3-((4S)-8-bromo-1,10-dimethyl-6-(pyridine-2-yl)-9-(trifluoromethoxy)-4H-benzo[f]imidazo[1,2-a][1,4]diazapin-4-yl)propionate stearate] | 5.7 | 2.67 | 2.54 | +++ (“+++” means 3-5 min) | 3.42 | 2.17 | ++ (“++” means 1-3 min) | 24.5 | – | – | – | – | – | – | – | – | – | – | – | – |
| CCCOC(=O)C1(OC(=O)CC[C@@H]2N=C(c3ccccn3)c3c(cc(OC(F)(F)F)c(Cl)c3C)-n3c(C)cnc32)CC1 [Example 75] | 5.8 | 2.26 | 2.15 | +++ (“+++” means 3-5 min) | 3.53 | 1.58 | +++ (“+++” means 3-5 min) | 29.1 | – | – | – | – | – | – | – | – | – | – | – | – |
| Cc1cc2c(c(C)c1C)C(c1ccccn1)=N[C@@H](CCC(=O)OCC(=O)OC(C)C)c1ncc(C)n1-2 [Example 76, 2-Isopropoxy-2-oxoethyl-3-(((4S)-1,7,8,9-tetramethyl-6-(pyridine-2-yl)-4H-benzo[f]imidazo[1,2-a][1,4]diaza-4-ylpropionate phosphate] | 6.3 | 2.47 | 2.23 | +++ (“+++” means 3-5 min) | 3.28 | 2.49 | ++++ (“++++” means 5-10 min) | 27.8 | – | – | – | – | – | – | – | – | – | – | – | – |
| CCOC(=O)C(C)(C)OC(=O)CC[C@@H]1N=C(c2ccccn2)c2c(cc(C)c(Cl)c2C)-n2c(C)cnc21 [Example 77, Ethyl 2-((3-((4S)-8-chloro-1,7,9-trimethyl-6-(pyridine-2-yl)-4H-benzo[f]imidazo[1,2-a][1,4]diazapin-4-yl)propionyl)oxy)-2-methylpropionate 2-hydroxy-1-naphthoate] | 6.1 | 2.38 | 2.47 | +++ (“+++” means 3-5 min) | 3.28 | 2.39 | +++ (“+++” means 3-5 min) | 30.2 | – | – | – | – | – | – | – | – | – | – | – | – |
| Cc1c(Cl)c(C(F)(F)F)cc2c1C(c1ccccn1)=N[C@@H](CCC(=O)OC(C)C(=O)OC(C)C)c1ncc(C)n1-2 (stereo partly drawn) [Example 78, 1-Isopropoxy-1-oxopropane-2-yl3-((4S)-8-chloro-1,7-dimethyl-6-(pyridine-2-yl)-9-(trifluoromethyl)-4H-benzo[f]imidazo[1,2-a][1,4]diaza-4-ylpropionate nicotinate] | – | – | – | – | – | – | – | – | 6.2 | 2.55 | 2.38 | ++ (key: “+” means <1 mm; “++” means 1-3 min; “+++” means 3-5 min; “++++” means 5-10 min; “+++++” means >10 mm) | 28.2 | 3.39 | 1.36 | ++ (key: “+” means <1 mm; “++” means 1-3 min; “+++” means 3-5 min; “++++” means 5-10 min; “+++++” means >10 mm) | – | – | – | – |
| COC(=O)C1(OC(=O)CC[C@@H]2N=C(c3ccccn3)c3cc(Cl)c(C)c(C)c3-n3c(C)cnc32)CC1 [Example 79, 1-((3-((4S)-8-chloro-1,9,10-trimethyl-6-(pyridine-2-yl)-4H-benzo[f]imidazo[1,2-a][1,4]diaza-4-yl)propionyl)oxy) cyclopropane-1-carboxylate 1-naphthoate] | 6.6 | 2.48 | 2.19 | +++ (“+++” means 3-5 min) | 3.45 | 1.38 | +++ (“+++” means 3-5 min) | 31.3 | – | – | – | – | – | – | – | – | – | – | – | – |
| COc1cc(C)cc2c1-n1c(C)cnc1[C@H](CCC(=O)OC1(C(=O)OC(C)C)CC1)N=C2c1ccccn1 [Example 80, Isopropyl 1-((3-((4S)-10-methoxy-1,8-dimethyl-6-(pyridine-2-yl)-4H-benzo[f]imidazo[1,2-a][1,4]diaza-4-yl)propionyl)oxy) cyclopropane-1-carboxylate methyl sulfate] | 6.7 | 2.36 | 2.18 | ++ (“++” means 1-3 min) | 3.56 | 2.01 | +++ (“+++” means 3-5 min) | 30.9 | – | – | – | – | – | – | – | – | – | – | – | – |
| CCOC(=O)C(C)OC(=O)CC[C@@H]1N=C(c2ccccn2)c2cc(C)c(OC)cc2-n2c(C)cnc21 (stereo partly drawn) [Example 81, 1-Ethoxy-1-oxopropane-2-yl3-((4S)-9-methoxy-1,8-dimethyl-6-(pyridine-2-yl)-4H-benzo[f]imidazo[1,2-a][1,4]diaza-4-ylpropionate malonate] | 6.2 | 2.43 | 2.09 | +++ (“+++” means 3-5 min) | 3.49 | 2.43 | +++ (“+++” means 3-5 min) | 31.1 | – | – | – | – | – | – | – | – | – | – | – | – |
| COC(=O)C(OC(=O)CC[C@@H]1N=C(c2ccccn2)c2cc(Cl)cc(OC(F)(F)F)c2-n2c(C)cnc21)C1CCCCCCCCC1 (stereo partly shown) [Example 82] | 5.8 | 2.15 | 2.10 | ++ (“++” means 1-3 min) | 3.54 | 2.13 | +++ (“+++” means 3-5 min) | 29.8 | – | – | – | – | – | – | – | – | – | – | – | – |
| COC1N(C)CC(CC(OC(=O)CC[C@@H]2N=C(c3ccccn3)c3cc(OC(F)(F)F)cc(C)c3-n3c(C)cnc32)OC(=O)OC(C(C)C)C(C)C)CN1C (stereo partly shown) [Example 83] | 6.1 | 2.09 | 2.09 | +++ (“+++” means 3-5 min) | 3.26 | 2.46 | +++ (“+++” means 3-5 min) | 30.1 | – | – | – | – | – | – | – | – | – | – | – | – |
| C/C=C/C1CC(OCOC(=O)COC(=O)CC[C@@H]2N=C(c3ccccn3)c3cc(Br)c(Cl)cc3-n3c(C)cnc32)C(Br)CC1C(F)(F)F (stereo partly drawn) [Example 84, 2-(((2-Bromo-5-((E)-propan-1-en-1-yl)-4-(trifluoromethyl)cyclohexyl)oxy)methoxy)-2-oxoethyl-3-((4S)-8-bromo-9-chloro-1-methyl-6-(pyridine-2-yl)-4H-benzo[f]imidazo[1,2-a][1,4]diaza-4-yl)propionate] | 6.23 | 2.18 | 1.58 | ++ (“++” means 1-3 min) | 3.16 | 2.17 | +++ (“+++” means 3-5 min) | 28.8 | – | – | – | – | – | – | – | – | – | – | – | – |
| COC(=O)CC[C@@H]1N=C(c2ccccn2)c2cc(Br)ccc2-n2c(C)cnc21 [Remimazolam, reference compound] | – | 7.58 | 6.46 | +++++ (“+++++” means >10 min) | 8.58 | 5.49 | +++++ (“+++++” means >10 mm) | – | – | – | – | – | – | – | – | – | 8.9 | 40 | – | – |
| (((((3-Methylbutane-2-yl)oxy)carbonyl)oxy) methyl 3-((4S)-9-bromo-8-fluoro-1-methyl-6- (pyridine-2-yl)-4H-benzo[f]imidazo [1,2-a][1,4]diaza-4-ylpropionate formate [Example 73] | – | – | – | – | – | – | – | – | – | 2.45 | 2.44 | ++ (key: “+” means <1 mm; “++” means 1-3 min; “+++” means 3-5 min; “++++” means 5-10 min; “+++++” means >10 mm) | – | 3.33 | 2.38 | +++ (key: “+” means <1 mm; “++” means 1-3 min; “+++” means 3-5 min; “++++” means 5-10 min; “+++++” means >10 mm) | – | – | 5.2 | 26.3 |

Reference: US12473291B2 (priority 2019, dated 2025)
